The source of these data is patent US8765698B2, “Methods and products for reawakening retrocyclins” (priority 2010, dated 2014).

The test system of data set [1] is Cervicovaginal tissues (EpiVaginal). The experiment in a line: LDH cytotoxicity assay on organotypic cervicovaginal tissue. Format: cell-based, human. The settings on record: 10 μg/ml, 24 hr. As to the method:
(§1) Cervicovaginal tissues were treated topically with 100 μl of PBS (control; n=4) or with 10 μg/ml of tobramycin (n=8) for 24 hr. Viability was assessed on control and tobramycin-treated tissue (n=1) using MTT assay kit (MatTek Corp., Ashland, Mass.). Cytotoxicity was measured by quantifying lactate dehydrogenase (LDH) activity in the underlying medium collected 24 hr after treatment with PBS or tobramycin by using CytoTox96 non-radioactive cytotoxicity assay kit (Promega Corp., Madison, Wis.).

For a further data set, the system named is retrocyclin polypeptides. The data set is described as follows: Retrocyclin expression in cervicovaginal tissues, RP-HPLC, immuno-dotblot and immunostaining. Format: cell-based, human.
Data set [2] deals with premature termination codon of retrocyclin cDNA. The experiment in a line: Aminoglycoside mediated read-through of termination codon, luciferase fusion construct in HOS-CD4-CCR5 cells. Format: cell-based, human. The settings on record: 10 μg/ml, 24 hr, luciferase normalized to renilla. The procedure:
Wildtype and mutant retrocyclin cDNAs were subcloned into phCMV-luc-FSR vector to create unrescued RC-101 and rescued RC-101 C-terminal luciferase fusion constructs, and verified by sequencing. HOS-CD4-CCR5 cells were cultured in antibiotic free growth medium (D10^−) and co-transfected with 0.5 μg of unrescued or rescued (positive control) RC-101 plasmids along with 0.1 μg of phRL-CMV vector (transfection control containing renilla luciferase gene) using Effectene transfection reagent (Qiagen, Valencia, Calif.). The next day cells were treated for 24 hr with the appropriate aminoglycoside (40 μg/ml amikacin or 5 μg/ml gentamicin or 10 μg/ml tobramycin) or D10^− for control cells. Read-through was determined by measuring luciferase and renilla levels using a dual luciferase assay (Promega Corp., Madison, Wis.).

Another data set has as its system HIV-1 BaL. The experiment in a line: Luciferase-based infection assay to determine anti-HIV-1 activity. Format: cell-based. The settings on record: for HIV-1 infection of aminoglycoside-treated TZM-bl cells: HIV-1 BaL, 24 hr, compared to untreated cells.
The test system of data set [3] is Cervicovaginal tissues (EpiVaginal). The data set is described as follows: MTT assay on organotypic cervicovaginal tissue. Format: cell-based, human. The settings on record: one tissue, data not shown. The procedure: as §1
The test system of a further data set is retrocyclin peptides. The data set is described as follows: Immunostaining of aminoglycoside-treated TZM-bl cells with anti-retrocyclin antibody. Format: cell-based. The settings on record: 10 μg/ml, 24 hr. An excerpt:
The coverslips were then processed for immunofluorescence staining with anti-retrocyclin (rabbit anti-RC-101 antibody) or pre-immune serum as described above.

Protocol for HIV-1 BaL: Treatments were then removed and the infection was quantified by measuring luciferase using Bright-Glo reagents (Promega, Madison, Wis.) in an LMax luminometer (Molecular Devices, Sunnyvale, Calif.). Cytotoxicity and metabolic activity of cells were verified by a tetrazolium-based MTT assay (R& D systems, Minneapolis, Minn.) performed on identically treated cells.
For antibody-mediated neutralization experiments, TZM-bl cells (4000 cells/well; 96 well plate) were cultured in D10^− medium and treated with vehicle (PBS) or 10 μg/ml of tobramycin for 24 hr. The next day, cells were treated with either rabbit preimmune or anti-retrocyclin serum diluted 1:10 in D10^− medium containing tobramycin or RC-100 (2.5 μg/ml). Two hours later the cells were infected with HIV-1 BaL (p24 of 5 ng/ml) at 37° C. for 24 hr. Viral infection was quantified as described above.

`NC[C@H]1O[C@H](O[C@H]2[C@H](O)[C@@H](O[C@H]3O[C@H](CO)[C@@H](O)[C@H](N)[C@H]3O)[C@H](N)C[C@@H]2N)[C@H](N)C[C@@H]1O` [tobramycin]: the “tissue cytotoxicity (LDH activity in underlying medium)” value in data set [1] is given as “not cytotoxic”. Besides, the “amount of retrocyclin polypeptides expressed in treated cervicovaginal tissues” value in the data set on retrocyclin polypeptides (10 μg/ml tobramycin, estimated by densitometry of immuno-dotblot) is “approximately 1.6 μg/tissue”. Moreover, the “anti-retrocyclin immunohistochemical staining of cervicovaginal tissue” value with retrocyclin polypeptides (applied apically, 24 hr) is given as “brightly stained cells”. For the same compound, the increase in read-through in data set [2] was 26 fold. In addition, the “HIV-1 infection of aminoglycoside-treated TZM-bl cells” value in the data set with HIV-1 BaL is given as “inhibited HIV-1 infection”. In addition, the “infection, preimmune serum compared to anti-retrocyclin antibodies” value in the data set on HIV-1 BaL (TZM-bl cells, tobramycin 10 μg/ml for 24 hr, then serum, HIV-1) is given as “modest yet significant reduction in infection”. Besides, the “metabolic activity of tissue (MTT assay)” value in data set [3] is “did not affect the metabolic activity adversely”. Further, in the data set with retrocyclin peptides, the “anti-retrocyclin immunostaining of TZM-bl cells” value is reported as “brightly stained cells”.
gentamicin: the “HIV-1 infection of aminoglycoside-treated TZM-bl cells” value in the data set on HIV-1 BaL was “inhibited HIV-1 infection”.
